What was measured:
[1] = molar heat capacity at constant pressure; xn = mol fraction of the nth substance listed; details: 100 kPa, Liquid, DSC, x1 = 0.333
[2] = refractive index (Na D-line) (dimensionless); xn = mol fraction of the nth substance listed; details: 100 kPa, Liquid, Standard Abbe refractometry, x1 = 0.333
[3] = xn = mol fraction of the nth substance listed; details: x1 = 0.333; for surface tension liquid-gas: Drop volume; for viscosity / electrical conductivity / speed of sound / mass density: 100 kPa, Liquid; for viscosity: Capillary tube (Ostwald / Ubbelohde) method; for electrical conductivity: Frequency=0.002 MHz, Alternating current cell with electrodes; for speed of sound: Frequency=3 MHz, Single path-length method; for mass density: Vibrating tube method

C[N+](C)(C)CCO.[Cl-] [choline chloride] + OCC(O)CO
Details | electrical conductivity, [3] [S/m] | mass density, [3] [kg/m3] | molar heat capacity at constant pressure, [1] [J/K/mol] | refractive index, [2] | speed of sound, [3] [m/s] | surface tension liquid-gas, [3] [mN/m] | viscosity, [3] [mPa·s]
278.15 K | 0.026 | 1207.05 | 211.5 | – | 2049.6 | 68.01 | 1511
280.65 K | 0.032 | 1205.6 | 212.5 | – | 2042.8 | 67.9 | 1211
283.15 K | 0.0406 | 1204.2 | 213.5 | 1.48809 | 2036.2 | 67.77 | 982.4
285.65 K | 0.0491 | 1202.8 | 214.5 | 1.4875 | 2029.9 | 67.65 | 801.5
288.15 K | 0.0587 | 1201.4 | 215 | 1.48698 | 2024 | 67.5 | 658.4
290.65 K | 0.0703 | 1200 | 216 | 1.48632 | 2018.2 | 67.34 | 543.7
293.15 K | 0.0839 | 1198.55 | 217 | 1.48574 | 2012.6 | 67.2 | 452.6
295.65 K | 0.0992 | 1197.15 | 217.5 | 1.48514 | 2006.9 | 67.1 | 378.5
298.15 K | 0.117 | 1195.75 | 218.5 | 1.48455 | 2001.3 | 66.95 | 319.7
300.65 K | 0.136 | 1194.3 | 219 | 1.48396 | 1995.8 | 66.81 | 271.4
303.15 K | 0.158 | 1192.9 | 220 | 1.48337 | 1990.2 | 66.7 | 232.1
305.65 K | 0.182 | 1191.5 | 221 | 1.48278 | 1984.7 | 66.57 | 199
308.15 K | 0.21 | 1190.15 | 221.5 | 1.48218 | 1979.2 | 66.43 | 171.6
310.65 K | 0.24 | 1188.75 | 222.5 | 1.48159 | 1973.8 | 66.31 | 149
313.15 K | 0.276 | 1187.4 | 223.5 | 1.48098 | 1968.3 | 66.18 | 130
315.65 K | 0.314 | 1186 | 224 | 1.4804 | 1962.8 | 66.05 | 113.8
318.15 K | 0.352 | 1184.65 | 225 | 1.4798 | 1957.4 | 65.93 | 100
320.65 K | 0.394 | 1183.25 | 226 | 1.47921 | 1951.8 | 65.74 | 88.43
323.15 K | 0.439 | 1181.9 | 227 | 1.4786 | 1946.3 | 65.62 | 78.39
325.65 K | 0.487 | 1180.5 | 228 | 1.47801 | 1940.7 | 65.48 | 69.46
328.15 K | 0.544 | 1179.1 | 228.5 | 1.47741 | 1935.2 | 65.38 | 62.06
330.65 K | 0.603 | 1177.7 | 229 | 1.47681 | 1929.6 | 65.23 | 55.63
333.15 K | 0.662 | 1176.35 | 230 | 1.47622 | 1924.1 | 65.1 | 50.05
335.65 K | 0.729 | 1174.95 | 231 | 1.47564 | 1918.5 | 64.97 | 45.19
338.15 K | 0.801 | 1173.55 | 232 | 1.47504 | 1912.9 | 64.84 | 40.94

— the NIST ThermoML archive (doi:10.1016/j.jct.2018.07.031)
